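Grown in 96-well plates, cells were treated for 48 hours with each compound at five concentrations. Insufficient inhibition: endpoint recorded as highest concentration tested. TGI is the concentration that stops growth completely.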
Legend:
Test in all cases: growth of human tumour cells (NCI), 48 h
[1] = system: 786-0 renal
[2] = system: A498 renal
[3] = system: A549 NSCLC
[4] = system: ACHN renal
[5] = system: BT-549 breast
[6] = system: CAKI-1 renal
[7] = system: CCRF-CEM leukemia
[8] = system: COLO 205 colon
[9] = system: DU-145 prostate
[10] = system: EKVX NSCLC
[11] = system: HCC-2998 colon
[12] = system: HCT-116 colon
[13] = system: HCT-15 colon
[14] = system: HL-60(TB) leukemia
[15] = system: HOP-62 NSCLC
[16] = system: HOP-92 NSCLC
[17] = system: HS 578T breast
[18] = system: HT29 colon
[19] = system: IGROV1 ovarian
[20] = system: K-562 leukemia
[21] = system: KM12 colon
[22] = system: LOX IMVI melanoma
[23] = system: M14 melanoma
[24] = system: MALME-3M melanoma
[25] = system: MCF7 breast
[26] = system: MDA-MB-231 breast
[27] = system: MDA-MB-435
[28] = system: MDA-N
[29] = system: MOLT-4 leukemia
[30] = system: NCI-H226 lung
[31] = system: NCI-H23 lung
[32] = system: NCI-H460 lung
[33] = system: NCI/ADR-RES ovarian
[34] = system: OVCAR-3 ovarian
[35] = system: OVCAR-4 ovarian
[36] = system: OVCAR-5 ovarian
[37] = system: OVCAR-8 ovarian
[38] = system: PC-3 prostate
[39] = system: RPMI-8226 leukemia
[40] = system: RXF 393 renal
[41] = system: SF-268 CNS
[42] = system: SF-295 CNS
[43] = system: SK-MEL-2 melanoma
[44] = system: SK-MEL-28 melanoma
[45] = system: SK-MEL-5 melanoma
[46] = system: SK-OV-3 ovarian
[47] = system: SN12C renal
[48] = system: SNB-19 CNS
[49] = system: SNB-75 CNS
[50] = system: SR leukemia
[51] = system: SW-620 colon
[52] = system: T-47D breast
[53] = system: TK-10 renal
[54] = system: U251 CNS
[55] = system: UACC-257 melanoma
[56] = system: UACC-62 melanoma
[57] = system: UO-31 renal
[58] = system: SF-539 CNS

Measured: TGI

COc1ccc(/C=N/NS(=O)(=O)c2ccc(/C=C3\NC(=O)N(C)C3=O)cc2)cc1
not listed: [58]
> 100 µM: all other assays above

CSc1ncc2c(C#N)c3ccccn3c(=O)c2n1
> 100 µM: all assays above
